pIC50: −log10 of the molar value.
Legend:
Prothrombin = Prothrombin (Homo sapiens, UniProt P00734); test: Anticoagulant activity when interacted with Coagulation factor II
Coagulation factor X = Coagulation factor X (Homo sapiens, UniProt P00742); test: Anticoagulant activity when interacted with Coagulation factor X
Rattus norvegicus = species on record: Rattus norvegicus; test: Relative inhibitory activity (ri) was measured in rat smooth muscle cells (SMC) at 100 ug/mL in comparison to that of Heparin; assay type: functional

Sequence of Coagulation factor X (P00742 41-179 limits assumed): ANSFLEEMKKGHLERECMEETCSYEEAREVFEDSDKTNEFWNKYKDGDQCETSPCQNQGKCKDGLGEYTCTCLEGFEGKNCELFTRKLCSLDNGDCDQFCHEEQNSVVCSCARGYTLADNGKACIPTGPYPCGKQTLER
Sequence of Coagulation factor X (P00742 235-488 limits assumed): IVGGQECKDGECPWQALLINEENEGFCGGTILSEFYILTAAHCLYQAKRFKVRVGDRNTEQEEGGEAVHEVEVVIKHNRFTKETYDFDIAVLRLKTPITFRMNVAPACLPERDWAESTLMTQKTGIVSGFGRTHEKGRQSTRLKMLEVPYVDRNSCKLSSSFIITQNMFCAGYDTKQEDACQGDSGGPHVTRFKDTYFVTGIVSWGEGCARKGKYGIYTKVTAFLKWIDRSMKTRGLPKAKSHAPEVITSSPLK

SMILES | pIC50 (Prothrombin) | pIC50 (Coagulation factor X) | Relative inhibitory activity (Rattus norvegicus)
O=S(=O)([O-])OC[C@@H]1O[C@@H](O[C@H]2O[C@@H](COS(=O)(=O)[O-])[C@@H](O[C@@H]3O[C@@H](CO[C@H]4O[C@@H](COS(=O)(=O)[O-])[C@@H](OS(=O)(=O)[O-])[C@H](OS(=O)(=O)[O-])[C@@H]4OS(=O)(=O)[O-])[C@@H](OS(=O)(=O)[O-])[C@H](OS(=O)(=O)[O-])[C@@H]3OS(=O)(=O)[O-])[C@H](OS(=O)(=O)[O-])[C@@H]2OS(=O)(=O)[O-])[C@@H](OS(=O)(=O)[O-])[C@@H](OS(=O)(=O)[O-])[C@H]1OS(=O)(=O)[O-].[Na+].[Na+].[Na+].[Na+].[Na+].[Na+].[Na+].[Na+].[Na+].[Na+].[Na+].[Na+].[Na+].[Na+] | < 3.32 | < 3.32 | 0.9
O=S(=O)([O-])OC[C@@H]1O[C@H](O[C@H]2O[C@@H](COS(=O)(=O)[O-])[C@@H](O[C@@H]3O[C@@H](COS(=O)(=O)[O-])[C@@H](OS(=O)(=O)[O-])[C@H](OS(=O)(=O)[O-])[C@@H]3O[C@@H]3O[C@@H](COS(=O)(=O)[O-])[C@@H](OS(=O)(=O)[O-])[C@H](OS(=O)(=O)[O-])[C@@H]3OS(=O)(=O)[O-])[C@H](OS(=O)(=O)[O-])[C@@H]2OS(=O)(=O)[O-])[C@@H](OS(=O)(=O)[O-])[C@@H](OS(=O)(=O)[O-])[C@H]1OS(=O)(=O)[O-].[Na+].[Na+].[Na+].[Na+].[Na+].[Na+].[Na+].[Na+].[Na+].[Na+].[Na+].[Na+].[Na+].[Na+] | < 3.32 | < 3.32 | 0.3
O=S(=O)([O-])OC[C@@H]1O[C@@H](O[C@@H]2[C@H](OS(=O)(=O)[O-])[C@@H](O[C@H]3[C@H](OS(=O)(=O)[O-])[C@H](OS(=O)(=O)[O-])[C@@H](O[C@H]4O[C@@H](COS(=O)(=O)[O-])[C@H](OS(=O)(=O)[O-])[C@H](OS(=O)(=O)[O-])[C@@H]4OS(=O)(=O)[O-])O[C@H]3COS(=O)(=O)[O-])OC[C@H]2OS(=O)(=O)[O-])[C@@H](OS(=O)(=O)[O-])[C@@H](OS(=O)(=O)[O-])[C@H]1OS(=O)(=O)[O-].[Na+].[Na+].[Na+].[Na+].[Na+].[Na+].[Na+].[Na+].[Na+].[Na+].[Na+].[Na+].[Na+] | < 3.29 | < 3.29 | 0.7
O=S(=O)([O-])OC[C@@H]1O[C@@H](O[C@H]2O[C@@H](COS(=O)(=O)[O-])[C@@H](O[C@@H]3O[C@@H](CO[C@H]4O[C@@H](COS(=O)(=O)[O-])[C@H](OS(=O)(=O)[O-])[C@H](OS(=O)(=O)[O-])[C@@H]4OS(=O)(=O)[O-])[C@@H](OS(=O)(=O)[O-])[C@H](OS(=O)(=O)[O-])[C@@H]3OS(=O)(=O)[O-])[C@H](OS(=O)(=O)[O-])[C@@H]2OS(=O)(=O)[O-])[C@@H](OS(=O)(=O)[O-])[C@@H](OS(=O)(=O)[O-])[C@H]1OS(=O)(=O)[O-].[Na+].[Na+].[Na+].[Na+].[Na+].[Na+].[Na+].[Na+].[Na+].[Na+].[Na+].[Na+].[Na+].[Na+] (stereo in doubt; 9) | < 3.32 | < 3.32 | 0.8
O=S(=O)([O-])OC[C@@H]1O[C@H](O[C@H]2O[C@@H](COS(=O)(=O)[O-])[C@@H](O[C@@H]3O[C@@H](COS(=O)(=O)[O-])[C@@H](OS(=O)(=O)[O-])[C@H](OS(=O)(=O)[O-])[C@@H]3O[C@H]3O[C@@H](COS(=O)(=O)[O-])[C@H](OS(=O)(=O)[O-])[C@H](OS(=O)(=O)[O-])[C@@H]3OS(=O)(=O)[O-])[C@H](OS(=O)(=O)[O-])[C@@H]2OS(=O)(=O)[O-])[C@@H](OS(=O)(=O)[O-])[C@@H](OS(=O)(=O)[O-])[C@H]1OS(=O)(=O)[O-].[Na+].[Na+].[Na+].[Na+].[Na+].[Na+].[Na+].[Na+].[Na+].[Na+].[Na+].[Na+].[Na+].[Na+] (stereo in doubt; 13) | < 3.32 | < 3.32 | 0.5
O=S(=O)(O)OC[C@@H]1O[C@H](O[C@H]2O[C@@H](COS(=O)(=O)O)[C@@H](O[C@@H]3O[C@@H](COS(=O)(=O)O)[C@@H](OS(=O)(=O)O)[C@H](OS(=O)(=O)O)[C@@H]3O[C@H]3O[C@@H](COS(=O)(=O)O)[C@H](OS(=O)(=O)O)[C@H](OS(=O)(=O)O)[C@@H]3OS(=O)(=O)O)[C@H](OS(=O)(=O)O)[C@@H]2OS(=O)(=O)O)[C@@H](OS(=O)(=O)O)[C@@H](OS(=O)(=O)O)[C@H]1OS(=O)(=O)O (stereo in doubt; 14) | < 3.32 | < 3.32 | –

Second part, led by results:

pIC50 (Prothrombin) | pIC50 (Coagulation factor X) | SMILES | Relative inhibitory activity (Rattus norvegicus)
< 3.30 | < 3.30 | C[C@@H]1O[C@@H](OC[C@@H]2O[C@@H](O[C@H]3[C@H](OS(=O)(=O)[O-])[C@H](OS(=O)(=O)[O-])[C@@H](O[C@H]4O[C@@H](COS(=O)(=O)[O-])[C@H](OS(=O)(=O)[O-])[C@H](OS(=O)(=O)[O-])[C@@H]4OS(=O)(=O)[O-])O[C@H]3COS(=O)(=O)[O-])[C@@H](OS(=O)(=O)[O-])[C@@H](OS(=O)(=O)[O-])[C@@H]2OS(=O)(=O)[O-])[C@H](OS(=O)(=O)[O-])[C@@H](OS(=O)(=O)[O-])[C@H]1OS(=O)(=O)[O-].[Na+].[Na+].[Na+].[Na+].[Na+].[Na+].[Na+].[Na+].[Na+].[Na+].[Na+].[Na+].[Na+] | 0.7
< 3.32 | < 3.32 | O=S(=O)([O-])OC[C@@H]1O[C@H](O[C@H]2O[C@@H](COS(=O)(=O)[O-])[C@@H](O[C@@H]3O[C@@H](COS(=O)(=O)[O-])[C@@H](OS(=O)(=O)[O-])[C@H](OS(=O)(=O)[O-])[C@@H]3O[C@H]3O[C@@H](COS(=O)(=O)[O-])[C@H](OS(=O)(=O)[O-])[C@H](OS(=O)(=O)[O-])[C@@H]3OS(=O)(=O)[O-])[C@H](OS(=O)(=O)[O-])[C@@H]2OS(=O)(=O)[O-])[C@@H](OS(=O)(=O)[O-])[C@@H](OS(=O)(=O)[O-])[C@H]1OS(=O)(=O)[O-].[Na+].[Na+].[Na+].[Na+].[Na+].[Na+].[Na+].[Na+].[Na+].[Na+].[Na+].[Na+].[Na+].[Na+] (stereo in doubt; 2) | 0.9
< 3.32 | < 3.32 | O=S(=O)([O-])OC[C@@H]1O[C@@H](O[C@H]2O[C@@H](COS(=O)(=O)[O-])[C@@H](O[C@@H]3O[C@@H](CO[C@H]4O[C@@H](COS(=O)(=O)[O-])[C@H](OS(=O)(=O)[O-])[C@H](OS(=O)(=O)[O-])[C@@H]4OS(=O)(=O)[O-])[C@@H](OS(=O)(=O)[O-])[C@H](OS(=O)(=O)[O-])[C@@H]3OS(=O)(=O)[O-])[C@H](OS(=O)(=O)[O-])[C@@H]2OS(=O)(=O)[O-])[C@@H](OS(=O)(=O)[O-])[C@@H](OS(=O)(=O)[O-])[C@H]1OS(=O)(=O)[O-].[Na+].[Na+].[Na+].[Na+].[Na+].[Na+].[Na+].[Na+].[Na+].[Na+].[Na+].[Na+].[Na+].[Na+] (stereo in doubt; 12) | 0.6
